Measurements as given in patent US20180051132A1, “ELASTOMER COUPLED WITH BIOACTIVE FATTY ACID” (University of Pittsburgh - Of the Commonwealth System of …, priority 2016, published 2018).

System: sheep vascular endothelial cell (SVEC)
Assay: SVEC proliferation/cytotoxicity, CellTiterBlue assay
Type: cell-based
Conditions: without growth factors
Description: The cell media used was the EGM-2 Bullet Kit (CC-3162) from Lonza. It consists of 500 mL of basal media, antibiotics GA-1000 (Gentamicin, Amphotecerin-B), FBS (Fetal Bovine Serum) 10 mL, and a kit of growth factors (VEGF, hFGF-B, R3-IGF-1, Ascorbic Acid, Heparin). • In vitro viability assay:Live/dead assay • In vitro cytotoxicity(biocompatibility)/proliferation assay: CellTiterBlue® assay • This in vitro test was to find the optimal linoleic acid content in the material. Cells were cultured in different concentration of LA. […]
The fluorescence of live cells were measured at three time points:1, 3, 5 days. […] Fluorescence was recorded triple times for each well at 560 nm/590 nm excitation/emission.

Structure (SMILES): CCCCC/C=C\C/C=C\CCCCCCCC(=O)O [LA, linoleic acid]
- SVEC proliferation (36 nM LA): higher proliferation than the cells in the positive control medium
- SVEC proliferation (360 nM LA): higher proliferation than the cells in the positive control medium
